# Assays:
# Type in all cases: in vivo
# [1] = test system: kochia (Kochia scoparia); test: Test D pre-/postemergence: kochia
# Procedure, shortened: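 Visual control ratings (0–100) after 14–21 days, controlled environment. Preemergence on silt loam; postemergence on 2–18 cm plants.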
# [2] = test system: bromegrass, downy (downy bromegrass, Bromus tectorum); test: Test C pre-/postemergence: bromegrass, downy
# Procedure, shortened: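 Preemergence on seeds in loam/sand, postemergence on 2–18 cm (1–4-leaf) plants in peat-based medium; compounds in non-phytotoxic solvent with surfactant. After 13–15 days in greenhouse, visual rating versus controls, 0 (no effect) to 100 (complete control).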
# [3] = test system: barley, spring (spring barley, Hordeum vulgare); test: Test D pre-/postemergence: barley, spring
# Description: (§1) Seeds of plant species selected from bluegrass (annual bluegrass, Poa annua), blackgrass (Alopecurus myosuroides), canarygrass (Phalaris minor), chickweed (common chickweed, Stellaria media), galium (catchweed bedstraw, Galium aparine), bromegrass, downy (downy bromegrass, Bromus tectorum), field poppy (Papaver rhoeas), field violet (Viola arvensis), foxtail, green (green foxtail, Setaria viridis), deadnettle (henbit deadnettle, Lamium amplexicaule), ryegrass, Italian (Italian ryegrass, Lolium multiflorum), kochia (Kochia scoparia), lambsquarters (Chenopodium album), oilseed rape (Brassica napus), pigweed (Amaranthus retroflexus), Russian thistle (Salsola iberica), chamomile (scentless chamomile, Matricaria inodora), speedwell (bird's-eye speedwell, Veronica persica), barley, spring (spring barley, Hordeum vulgare), wheat, spring (spring wheat, Triticum aestivum), buckwheat, wild (wild buckwheat, Polygonum convolvulus), mustard, wild (wild mustard, Sinapis arvensis), oat, wild (wild oat, Avena fatua), radish, wild (wild radish, Raphanus raphanistrum), windgrass (Apera spica-venti), barley, winter (winter barley, Hordeum vulgare), and wheat, winter (winter wheat, Triticum aestivum) were planted into a silt loam soil and treated preemergence with test chemicals formulated in a non-phytotoxic solvent mixture which included a surfactant. At the same time, these same crop and weed species were planted in pots containing the planting medium comprising spaghnum peat moss, vermiculite, wetting agent and starter nutrients and treated with postemergence applications of the test chemicals formulated in the same manner. Plants ranged in height from 2 to 18 cm (1- to 4-leaf stage).
# (§2) Treated plants and controls were maintained in a controlled growth environment for 14 to 21 days after which time all species were compared to controls and visually evaluated. Plant response ratings, summarized in Table D, are based on a scale of 0 to 100 where 0 is no effect and 100 is complete control. A dash (-) response means no test result.
# [4] = test system: ryegrass, Italian (Italian ryegrass, Lolium multiflorum); test: Test D pre-/postemergence: ryegrass, Italian
# Description: as §1, §2
# [5] = test system: mustard, wild (wild mustard, Sinapis arvensis); test: Test D pre-/postemergence: mustard, wild
# Description: as §1, §2
# [6] = test system: rice (Oryza sativa); test: Test C flooded paddy test: rice; conditions: Oryza sativa, scale 0 to 100 (0 no effect, 100 complete control), read-out: Plant response rating, Rice
# Procedure, shortened: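 Visual ratings from 0 (no effect) to 100 (complete control), made against untreated controls 13 to 15 days after treatment, express plant response. Compounds went directly into paddy water over 2-leaf stage plants in pots flooded to 3 cm.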
# [7] = Postemergence, 31 g ai/ha, scale 0 to 100 (0 no effect, 100 complete control)
# [8] = Postemergence, 62 g ai/ha, scale 0 to 100 (0 no effect, 100 complete control)
# [9] = Postemergence, 125 g ai/ha, scale 0 to 100, 0 no effect, 100 complete control
# [10] = Postemergence, 8 g ai/ha, scale 0 to 100
# [11] = Postemergence, 16 g ai/ha, scale 0 to 100
# [12] = Postemergence, 250 g ai/ha, scale 0 to 100
# [13] = Preemergence, 31 g ai/ha, scale of 0 to 100, 0 is no effect, 100 is complete control
# [14] = Preemergence, 62 g ai/ha, scale of 0 to 100, 0 is no effect, 100 is complete control
# [15] = Preemergence, 125 g ai/ha, scale 0 to 100, 0 no effect, 100 complete control
# [16] = Preemergence, 250 g ai/ha, scale 0 to 100, 0 no effect, 100 complete control
# [17] = Postemergence, 250 g ai/ha, scale 0 to 100 (0 no effect, 100 complete control)
# [18] = Preemergence, 16 g ai/ha, scale 0 to 100 (0 no effect, 100 complete control)
# [19] = Preemergence, 31 g ai/ha, scale 0 to 100 (0 no effect, 100 complete control)
# [20] = Preemergence, 62 g ai/ha, scale 0 to 100
# [21] = Preemergence, 125 g ai/ha, scale 0 to 100
# [22] = Preemergence, 250 g ai/ha, scale 0 to 100
smiles,measurement,setting,value
Cc1nn(-c2ccc(F)c(F)c2)nc1Oc1ccnc(C(F)(F)F)c1 [Compound 145],Plant response rating: Kochia,[1]; [7],98
same,Plant response rating: Kochia,[1]; [8],100
same,Plant response rating: Kochia,[1]; [9],100
same,"Plant response rating, Kochia",[1]; [10],80
same,"Plant response rating, Kochia",[1]; [11],90
same,"Plant response rating, Bromegrass, Downy",[2]; [7],5
same,"Plant response rating, Bromegrass, Downy",[2]; [8],10
same,"Plant response rating, Bromegrass, Downy",[2]; [9],20
same,"Plant response rating, Bromegrass, Downy",[2]; [12],25
same,"Plant response rating, Bromegrass, Downy",[2]; [13],5
same,"Plant response rating, Bromegrass, Downy",[2]; [14],20
same,"Plant response rating, Bromegrass, Downy",[2]; [15],70
same,"Plant response rating, Bromegrass, Downy",[2]; [16],85
same,"Plant response rating: Barley, Spring",[3]; [7],10
same,"Plant response rating: Barley, Spring",[3]; [8],15
same,"Plant response rating: Barley, Spring",[3]; [9],20
same,"Plant response rating, Barley, Spring",[3]; [10],5
same,"Plant response rating, Barley, Spring",[3]; [11],10
same,"Plant response rating: Ryegrass, Italian",[4]; [7],10
same,"Plant response rating: Ryegrass, Italian",[4]; [8],15
same,"Plant response rating: Ryegrass, Italian",[4]; [9],30
same,"Plant response rating, Ryegrass, Italian",[4]; [10],0
same,"Plant response rating, Ryegrass, Italian",[4]; [11],0
same,"Plant response rating: Mustard, Wild",[5]; [7],75
same,"Plant response rating: Mustard, Wild",[5]; [8],90
same,"Plant response rating: Mustard, Wild",[5]; [9],100
same,"Plant response rating, Mustard, Wild",[5]; [10],25
same,"Plant response rating, Mustard, Wild",[5]; [11],70
"Cc1nn(-c2ccc(F)cc2)nc1Oc1ccnc(C(F)(F)F)c1 [Compound 129, 4-[[2-(4-fluorophenyl)-5-methyl-2H-1,2,3-triazol-4-yl]oxy]-2-(trifluoromethyl)pyridine]",Plant response rating: Kochia,[1]; [7],98
same,Plant response rating: Kochia,[1]; [8],100
same,Plant response rating: Kochia,[1]; [9],100
same,Plant response rating: Kochia,[1]; [17],100
same,"Plant response rating, Kochia",[1]; [11],98
same,"Plant response rating, Kochia",[1]; [18],20
same,"Plant response rating, Kochia",[1]; [19],25
same,"Plant response rating, Kochia",[1]; [20],75
same,"Plant response rating, Kochia",[1]; [21],100
same,"Plant response rating, Kochia",[1]; [22],100
same,plant injury at 125 g/ha,"[6]; Flood (flooded paddy test), 125 g ai/ha, visual rating after 13 to 15 days",40%
same,plant injury at 250 g/ha,"[6]; Flood (flooded paddy test), 250 g ai/ha, visual rating after 13 to 15 days",50%
same,plant injury at 31 g/ha,"[6]; Flood, 31 g ai/ha",20%
same,plant injury at 62 g/ha,"[6]; Flood, 62 g ai/ha",30%
same,"Plant response rating, Bromegrass, Downy",[2]; [7],35
same,"Plant response rating, Bromegrass, Downy",[2]; [8],35
same,"Plant response rating, Bromegrass, Downy",[2]; [9],40
same,"Plant response rating, Bromegrass, Downy",[2]; [12],40
same,"Plant response rating, Bromegrass, Downy",[2]; [13],30
same,"Plant response rating, Bromegrass, Downy","[2]; Preemergence, 62 g ai/ha, scale 0 to 100, 0 no effect, 100 complete control",80
same,"Plant response rating, Bromegrass, Downy",[2]; [15],95
same,"Plant response rating, Bromegrass, Downy",[2]; [16],100
same,"Plant response rating: Barley, Spring",[3]; [7],5
same,"Plant response rating: Barley, Spring",[3]; [8],5
same,"Plant response rating: Barley, Spring",[3]; [9],10
same,"Plant response rating: Barley, Spring",[3]; [17],10
same,"Plant response rating, Barley, Spring",[3]; [11],5
same,"Plant response rating, Barley, Spring",[3]; [18],0
same,"Plant response rating, Barley, Spring",[3]; [19],0
same,"Plant response rating, Barley, Spring",[3]; [20],5
same,"Plant response rating, Barley, Spring",[3]; [21],15
same,"Plant response rating, Barley, Spring",[3]; [22],20
same,"Plant response rating: Ryegrass, Italian",[4]; [7],5
same,"Plant response rating: Ryegrass, Italian",[4]; [8],5
same,"Plant response rating: Ryegrass, Italian",[4]; [9],10
same,"Plant response rating: Ryegrass, Italian",[4]; [17],15
same,"Plant response rating, Ryegrass, Italian",[4]; [11],5
same,"Plant response rating, Ryegrass, Italian",[4]; [18],0
same,"Plant response rating, Ryegrass, Italian",[4]; [19],5
same,"Plant response rating, Ryegrass, Italian",[4]; [20],10
same,"Plant response rating, Ryegrass, Italian",[4]; [21],70
same,"Plant response rating, Ryegrass, Italian",[4]; [22],90
same,"Plant response rating, Mustard, Wild",[5]; [18],0
same,"Plant response rating, Mustard, Wild",[5]; [19],5
same,"Plant response rating, Mustard, Wild",[5]; [20],40
same,"Plant response rating, Mustard, Wild",[5]; [21],80
same,"Plant response rating, Mustard, Wild",[5]; [22],100
CCOc1nn(-c2ccc(F)cc2)nc1Cc1ccnc(C(F)F)c1 [Compound 195],Plant response rating: Kochia,[1]; [7],85
same,Plant response rating: Kochia,[1]; [8],95
same,Plant response rating: Kochia,[1]; [9],100
same,Plant response rating: Kochia,[1]; [17],100
same,"Plant response rating, Kochia",[1]; [11],70
same,"Plant response rating, Kochia",[1]; [18],40
same,"Plant response rating, Kochia",[1]; [19],50
same,"Plant response rating, Kochia",[1]; [20],60
same,"Plant response rating, Kochia",[1]; [21],80
same,"Plant response rating, Kochia",[1]; [22],85
same,"Plant response rating, Bromegrass, Downy",[2]; [7],15
same,"Plant response rating, Bromegrass, Downy",[2]; [8],30
same,"Plant response rating, Bromegrass, Downy",[2]; [9],50
same,"Plant response rating, Bromegrass, Downy",[2]; [12],60
same,"Plant response rating, Bromegrass, Downy","[2]; Preemergence, 31 g ai/ha, scale 0 (no effect) to 100 (complete control)",15
same,"Plant response rating, Bromegrass, Downy",[2]; [14],45
same,"Plant response rating, Bromegrass, Downy",[2]; [15],85
same,"Plant response rating, Bromegrass, Downy",[2]; [16],90
same,"Plant response rating: Barley, Spring",[3]; [7],15
same,"Plant response rating: Barley, Spring",[3]; [8],20
same,"Plant response rating: Barley, Spring",[3]; [9],30
same,"Plant response rating: Barley, Spring",[3]; [17],40
same,"Plant response rating, Barley, Spring",[3]; [11],10
same,"Plant response rating, Barley, Spring",[3]; [18],0
same,"Plant response rating, Barley, Spring",[3]; [19],0
same,"Plant response rating, Barley, Spring",[3]; [20],0
same,"Plant response rating, Barley, Spring",[3]; [21],0
same,"Plant response rating, Barley, Spring",[3]; [22],30
same,"Plant response rating: Ryegrass, Italian",[4]; [7],10
same,"Plant response rating: Ryegrass, Italian",[4]; [8],20
same,"Plant response rating: Ryegrass, Italian",[4]; [9],20
same,"Plant response rating: Ryegrass, Italian",[4]; [17],25
same,"Plant response rating, Ryegrass, Italian",[4]; [11],5
same,"Plant response rating, Ryegrass, Italian",[4]; [18],0
same,"Plant response rating, Ryegrass, Italian",[4]; [19],0
same,"Plant response rating, Ryegrass, Italian",[4]; [20],0
same,"Plant response rating, Ryegrass, Italian",[4]; [21],20
same,"Plant response rating, Ryegrass, Italian",[4]; [22],60
same,"Plant response rating: Mustard, Wild",[5]; [7],80
same,"Plant response rating: Mustard, Wild",[5]; [8],80
same,"Plant response rating: Mustard, Wild",[5]; [9],95
same,"Plant response rating: Mustard, Wild",[5]; [17],100
same,"Plant response rating, Mustard, Wild",[5]; [11],60
same,"Plant response rating, Mustard, Wild",[5]; [18],0
same,"Plant response rating, Mustard, Wild",[5]; [19],10
same,"Plant response rating, Mustard, Wild",[5]; [20],40
same,"Plant response rating, Mustard, Wild",[5]; [21],100
same,"Plant response rating, Mustard, Wild",[5]; [22],100

# From patent US9302999B2, “Substituted triazoles as herbicides” (E. I. DU PONT DE NEMOURS AND COMPANY, priority 2012, dated 2016)
